Assay results published in ChEMBL document CHEMBL5576115, “Design and synthesis of chromene-1,2,3-triazole benzene sulfonamide hybrids as potent carbonic anhydrase-IX inhibitors against prostate cancer” (RSC Med Chem, 2024).
Activity calls are given as the source filed them. The calls are words filed in the database; no cut-off is given here.

Columns and labels:
[1] = test system: MCF7; assay: Cytotoxicity against human MCF7 cells assessed as reduction in cell viability measured after 48 hrs by MTT assay; format: functional, cell-based; conditions: MCF7, 48 h
[2] = test system: MCF7; assay: Cytotoxicity against human MCF7 cells assessed as reduction in cell viability at 100 uM measured after 48 hrs by MTT assay; format: functional, cell-based
[3] = test system: PC-3; assay: Cytotoxicity against human PC-3 cells assessed as reduction in cell viability measured after 48 hrs by MTT assay; format: functional, cell-based; conditions: PC-3, 48 h
[4] = Cytotoxicity against human WI-38 cells assessed as reduction in cell viability measured after 48 hrs by MTT assay; format: toxicity, cell-based
[5] = test system: PC-3; assay: Cytotoxicity against human PC-3 cells assessed as reduction in cell viability at 100 uM measured after 48 hrs by MTT assay; format: functional, cell-based
[6] = test system: WI-38; assay: Cytotoxicity against human WI-38 cells assessed as cell death at 100 uM measured after 48 hrs by MTT assay relative to control; format: toxicity, cell-based; conditions: wi-38, 48 h
[7] = target: Carbonic anhydrase 9 (Homo sapiens, UniProt Q16790); assay: biochemical; format: cell-based, Sf9
Description: Inhibition of human C-terminal His-tagged CA-9 (59 to 414 residues) expressed in baculovirus infected Sf9 insect cells

[8] = test system: PC-3; assay: Cell cycle arrest in human PC-3 cells assessed as accumulation of cells at G1 phase at cytotoxic IC50 measured after 48 hrs by propidium iodide staining based flow cytometry relative to control; format: functional
[9] = test system: PC-3; assay: Induction of apoptosis in human PC-3 cells assessed as accumulation of early apoptotic cells at cytotoxic IC50 measured after 48 hrs by Annexin-V-FITC/propidium iodide staining based flow cytometry relative to control; format: functional
[10] = test system: PC-3; assay: Cell cycle arrest in human PC-3 cells assessed as accumulation of cells at S phase at cytotoxic IC50 measured after 48 hrs by propidium iodide staining based flow cytometry (reference value: 19.81%); format: functional
[11] = test system: PC-3; assay: Cell cycle arrest in human PC-3 cells assessed as accumulation of cells at G2/M phase at cytotoxic IC50 measured after 48 hrs by propidium iodide staining based flow cytometry (reference value: 12.75%); format: functional
[12] = test system: PC-3; assay: Induction of apoptosis in human PC-3 cells assessed as accumulation of late apoptotic cells at cytotoxic IC50 measured after 48 hrs by Annexin-V-FITC/propidium iodide staining based flow cytometry relative to control; format: functional
[13] = test system: PC-3; assay: Induction of apoptosis in human PC-3 cells assessed as necrotic cells at cytotoxic IC50 measured after 48 hrs by Annexin-V-FITC/propidium iodide staining based flow cytometry (reference value: 1.61%); format: functional

Question: For `Cc1cc(=O)oc2cc(OCc3cn(CC(=O)Nc4ccc(S(=O)(=O)Nc5ccccn5)cc4)nn3)ccc12`, which IC50 [1] is on record?
Answer: 17 µM

Question: What about the Activity [2] of the same compound?
Answer: Active

Question: What about the IC50 [3] of the same compound?
Answer: 58.9 µM

Question: With `Cc1cc(C)nc(NS(=O)(=O)c2ccc(-n3cc(COc4ccc5c(C)cc(=O)oc5c4C)nn3)cc2)n1` as the compound, how does the IC50 [1] read?
Answer: 41.1 µM

Question: What about the IC50 [3] of the same compound?
Answer: 21.4 µM

Question: Which IC50 [1] does the source give for `Cc1cc(=O)oc2c(C)c(OCc3cn(-c4ccc(S(=O)(=O)Nc5ncccn5)cc4)nn3)ccc12` here?
Answer: 16.7 µM

Question: And the IC50 [3]?
Answer: 12.5 µM

Question: Which IC50 [1] does the source give for `Cc1cc(=O)oc2cc(OCc3cn(-c4ccc(S(=O)(=O)Nc5ncccn5)cc4)nn3)ccc12` here?
Answer: 41.4 µM

Question: And the IC50 [3]?
Answer: 8.31 µM

Question: With `Cc1cc(=O)oc2c(C)c(OCc3cn(-c4ccc(S(=O)(=O)Nc5ccccn5)cc4)nn3)ccc12` as the compound, how does the IC50 [1] read?
Answer: 14.3 µM

Question: And the Activity [2]?
Answer: Active

Question: And the IC50 [3]?
Answer: 8.95 µM

Question: What does the source list for `Cc1cc(C)nc(NS(=O)(=O)c2ccc(-n3cc(COc4cc(OCc5cn(-c6ccc(S(=O)(=O)Nc7nc(C)cc(C)n7)cc6)nn5)c5c(-c6ccccc6)cc(=O)oc5c4)nn3)cc2)n1`?
Answer: IC50 at 48 h [4]: 46.6 µM; Activity [5]: Active; Activity [6]: 23.6%; IC50 [7]: 0.134 µM; IC50 [1]: > 100 µM; IC50 [3]: 7.57 µM

Question: With `O=c1cc(-c2ccccc2)c2c(OCc3cn(-c4ccc(S(=O)(=O)Nc5ccccn5)cc4)nn3)cc(OCc3cn(-c4ccc(S(=O)(=O)Nc5ccccn5)cc4)nn3)cc2o1` as the compound, how does the Activity [8] read?
Answer: 31.9%

Question: And the “fold change (FC)” value [9]?
Answer: >18

Question: And the IC50 at 48 h [4]?
Answer: 46.6 µM

Question: And the Activity [10]?
Answer: 15.29%

Question: What about the Activity [5] of the same compound?
Answer: Active

Question: What about the Activity [6] of the same compound?
Answer: 23.6%

Question: And the IC50 [7]?
Answer: 0.113 µM

Question: What about the IC50 [1] of the same compound?
Answer: 18 µM

Question: What about the Activity [11] of the same compound?
Answer: 9.36%

Question: What about the “fold change (FC)” value [12] of the same compound?
Answer: 60

Question: What about the IC50 [3] of the same compound?
Answer: 2.08 µM

Question: What about the Activity [13] of the same compound?
Answer: 4.68%

Question: For `O=c1cc(-c2ccccc2)c2c(OCc3cn(-c4ccc(S(=O)(=O)Nc5ncccn5)cc4)nn3)cc(OCc3cn(-c4ccc(S(=O)(=O)Nc5ncccn5)cc4)nn3)cc2o1`, which IC50 [1] is on record?
Answer: 66.7 µM

Question: And the IC50 [3]?
Answer: 11.6 µM

Question: Which IC50 [1] does the source give for `COc1cccc2c1C(=O)c1c(O)c3c(c(O)c1C2=O)C[C@@](O)(C(=O)CO)C[C@@H]3O[C@H]1C[C@H](N)[C@H](O)[C@H](C)O1` [DOXORUBICIN] here?
Answer: 3.41 µM

Question: What about the IC50 [3] of the same compound?
Answer: 2.31 µM

Question: With `Cc1cc(=O)oc2c(C)c(OCc3cn(CC(=O)Nc4ccc(S(=O)(=O)Nc5ccccn5)cc4)nn3)ccc12` as the compound, how does the IC50 [1] read?
Answer: 38.9 µM

Question: What about the IC50 [3] of the same compound?
Answer: 40.1 µM

Question: With `Cc1cc(=O)oc2cc(OCc3cn(-c4ccc(S(=O)(=O)N=C(N)N)cc4)nn3)ccc12` as the compound, how does the IC50 [1] read?
Answer: 76 µM

Question: And the IC50 [3]?
Answer: 23.9 µM

Question: Which IC50 at 48 h [4] does the source give for `O=C(Cn1cc(COc2cc(OCc3cn(CC(=O)Nc4ccc(S(=O)(=O)Nc5ccccn5)cc4)nn3)c3c(-c4ccccc4)cc(=O)oc3c2)nn1)Nc1ccc(S(=O)(=O)Nc2ccccn2)cc1` here?
Answer: 46.6 µM

Question: What about the Activity [5] of the same compound?
Answer: Active

Question: What about the Activity [6] of the same compound?
Answer: 23.6%

Question: What about the IC50 [7] of the same compound?
Answer: 0.214 µM

Question: What about the IC50 [1] of the same compound?
Answer: 57.2 µM

Question: And the IC50 [3]?
Answer: 5.52 µM

Question: For `N=C(N)NS(=O)(=O)c1ccc(-n2cc(COc3cc(OCc4cn(-c5ccc(S(=O)(=O)NC(=N)N)cc5)nn4)c4c(-c5ccccc5)cc(=O)oc4c3)nn2)cc1`, which IC50 [1] is on record?
Answer: 19.1 µM

Question: And the Activity [2]?
Answer: Active

Question: And the IC50 [3]?
Answer: 14.6 µM

Question: For `Cc1cc(C)nc(NS(=O)(=O)c2ccc(-n3cc(COc4ccc5c(C)cc(=O)oc5c4)nn3)cc2)n1`, which IC50 [1] is on record?
Answer: 97.5 µM

Question: What about the IC50 [3] of the same compound?
Answer: 9.98 µM

Question: What does the source list for `Cc1cc(=O)oc2c(C)c(OCc3cn(-c4ccc(S(=O)(=O)N=C(N)N)cc4)nn3)ccc12`?
Answer: IC50 [1]: 56.3 µM; IC50 [3]: 29.7 µM

Question: With `Cc1cc(=O)oc2cc(OCc3cn(-c4ccc(S(=O)(=O)Nc5ccccn5)cc4)nn3)ccc12` as the compound, how does the IC50 [1] read?
Answer: 32 µM

Question: What about the IC50 [3] of the same compound?
Answer: 15.8 µM
